Reference: article PMC12606464, “Investigating NFE2L1 activators for targeted protein aggregate clearance: a follow-up study” (RSC Medicinal Chemistry, 2025)

Key:
[1] = tested on: ubiquitin-proteasome system; experiment: Ub-G76V-GFP reporter degradation in U2OS cells; type: cell-based; conditions: U2OS cells, Fig. S3
Excerpt: We next examined whether the selected RUN compounds activate the NFE2L1 pathway in a stress-independent manner, while preserving normal ubiquitin-dependent proteasomal degradation. This distinction is crucial, as the therapeutic benefit of NFE2L1 activation lies in its ability to alleviate proteotoxic stress and target disease-related proteins for degradation without compromising normal proteostasis. To assess this, U2OS cells stably expressing the short-lived fluorescent reporter Ub-G76V-GFP were treated with various concentrations of RUN compounds. […] We also examined whether compound-induced activation of NFE2L1 could be attributed to the generation of reactive oxygen species (ROS). To test this, the 3×PSMA4-ARE-LUC reporter assay was performed in the presence or absence of the antioxidant N-acetyl-L-cysteine (NAC). A decrease in reporter activity upon NAC treatment would indicate pathway activation through oxidative stress.
RUN compound (5 µM) for 8 hours. Fluorescence intensity was normalized to cell viability (measured by the alamarBlue assay) and compared to vehicle control (DMSO). Unlike the […]
as means ± SD from three independent experiments (n = 3). Statistical analysis was performed using a multiple unpaired t-test with Welch’s correction, with adjustment for multiple comparisons by the Holm–Šídák method (α = 0.05). ****p<0.0001. Detailed results of the analysis are shown in Supplementary Table S14. […]
2.4 Monitoring protein degradation using UbG76V-GFP reporter cells
U2OS cells stably expressing the Ub-G76V-GFP reporter were seeded into 96-well plates at and cultured overnight under standard conditions. On the following day, cells were treated with the indicated test compounds or DMSO vehicle control for 8 hours. After treatment, GFP fluorescence intensity was measured, providing a readout of proteasome-dependent degradation of the Ub-G76V-GFP substrate. Cell viability was then assessed in the same wells using the alamarBlue assay according to the manufacturer’s protocol. Viability values were used for normalization of fluorescence data to account for differences in cell number. Accumulation of GFP signal relative to DMSO-treated controls was interpreted as reduced degradation of UPS substrates, indicating potential effects of the compounds on the natural protein turnover.
Statistical comparison of RUN compounds with ASC-JM17 was performed using a multiple unpaired t-test with Welch’s correction, with adjustment for multiple comparisons by the Holm–Šídák method (α = 0.05) in GraphPad Prism (v 10.6.1). […]
RNA was extracted using […]
the RNeasy® Plus Micro Kit according to the manufacturer’s instructions. Complementary DNA (cDNA) was synthesized from RNA using either t he TATAA GrandScript cDNA Supermix (TATAA Biocenter) or the QuantiTect® Reverse Transcription Kit (Qiagen), following the respective protocols. Quantitative RT -PCR was performed on a LightCycler® 480 instrument (Roche Life Science) using the TATAA SYBR® Gr andMaster® Mix (TATAA […]
(§1) Biocenter). Gene expression levels were normalized to RPLP0, and relative expression was calculated using the ΔΔCt method. Data were expressed as fold change relative to the corresponding DMSO control. Statistical analysis of changes in gene expression was performed w ith a ratio paired t-test corrected for multiple comparisons using Holm-Šídák's method (α = 0.05) in GraphPad Prism (v 10.6.1).
(§2) Table S1. Sequences of primer pairs used in the qRT -PCR analysis of gene expression.

[2] = tested on: NFE2L1-dependent gene expression; experiment: Quantitative RT-PCR of NFE2L1-dependent genes in HEK293 cells; type: cell-based, human; conditions: 7.5 μM, 16 h; for DNAJA1 mRNA, geometric mean (treatment) / HSPA1A mRNA, geometric mean (treatment) / NQO1 mRNA, geometric mean (treatment) / PSMC4 mRNA, geometric mean (treatment) / PSMD12 mRNA, geometric mean (treatment) / SQSTM1 mRNA, geometric mean (treatment): HEK293, normalized to RPLP0, DMSO control = 1; for DNAJA1 mRNA, geometric mean of ratios / HSPA1A mRNA, geometric mean of ratios / NQO1 mRNA, geometric mean of ratios / PSMC4 mRNA, geometric mean of ratios / PSMD12 mRNA, geometric mean of ratios / SQSTM1 mRNA, geometric mean of ratios: treatment/control, ratio paired t test, HEK293
Method: NFE2L1 enhances the transcription of genes encoding proteasome subunits and molecular chaperones such as heat shock proteins (HSPs). To evaluate whether this effect is elicited by RUN compounds, we performed quantitative real-time PCR (RT-qPCR) analysis in HEK293 cells treated with selected RUN compounds (Fig. 2A).[28,53–55]
Fig. 2 (A) qPCRs of HEK293 cells treated with RUN compounds (7.5 μM) for 16 hours. The extracted RNA was reverse transcribed into cDNA and utilized for RT-qPCR (primers are listed in the SI, Table S1); the mRNA levels of RPLP0 were used for normalization. The experiment was performed in three biological replicates (n = 3). (B) Immunoblot analysis of proteins NFE2L1/TCF11/NRF1, SQSTM1/p62, LC3, NQO1 and HSPA1A/HSP70-1 in HEK293 cells after 16 h treatment with 7.5 μM RUN compounds. The protein levels were quantified by measuring the integrated fluorescence of the corresponding protein bands and normalized to the β-actin load. The full-length (F) and cleaved (C) forms of NFE2L1 were analyzed together. The experiment was performed in four biological replicates (n = 4) except for NFE2L1 (n = 3). (A and B) Results of RUN compounds were compared to the DMSO control using ratio paired t-tests corrected for multiple comparisons with Holm–Šídák's method (α = 0.05). *p < 0.05, **p < 0.01. Detailed results of the analysis are shown in SI Tables S5 and S6. […]
HEK-293 cells were seeded into 12 -well plates and allowed to adhere overnight under standard culture conditions. On the following day, cells were treated with the indicated test compounds or DMSO vehicle control for 16 h. After treatment, cells were lysed directly in the wells, and the resulting lysates were collected for downstream RNA extraction. RNA was extracted using the RNeasy® Plus Micro Kit according to the manufacturer’s instructions. Complementary DNA (cDNA) was synthesized from RNA using either t he TATAA GrandScript cDNA Supermix (TATAA Biocenter) or the QuantiTect® Reverse Transcription Kit (Qiagen), following the respective protocols. Quantitative RT -PCR was performed on a LightCycler® 480 instrument (Roche Life Science) using the TATAA SYBR® Gr andMaster® Mix (TATAA […]
as §1, §2

## COc1ccc(/C=C2\CC(N)C/C(=C\c3ccc(OC)c(OC)c3)C2=O)cc1OC (centres unmarked) [RUN-81]
[1]
  Ub-G76V-GFP reporter assay, mean: 1.14
[2]
  DNAJA1 mRNA, geometric mean (treatment): 3.68
  HSPA1A mRNA, geometric mean (treatment): 8.57
  NQO1 mRNA, geometric mean (treatment): 2.23
  PSMC4 mRNA, geometric mean (treatment): 4.76
  PSMD12 mRNA, geometric mean (treatment): 3.37
  SQSTM1 mRNA, geometric mean (treatment): 4.15
  DNAJA1 mRNA, geometric mean of ratios: 3.68
  HSPA1A mRNA, geometric mean of ratios: 8.57
  NQO1 mRNA, geometric mean of ratios: 2.23
  PSMC4 mRNA, geometric mean of ratios: 4.76
  PSMD12 mRNA, geometric mean of ratios: 3.37
  SQSTM1 mRNA, geometric mean of ratios: 4.15

## COc1ccc(/C=C2\CC(NC(=O)C3CCCC3)C/C(=C\c3ccc(OC)c(OC)c3)C2=O)cc1OC (centres unmarked) [RUN-89]
[1]
  Ub-G76V-GFP reporter assay, mean: 1.17
[2]
  DNAJA1 mRNA, geometric mean (treatment): 7.60
  HSPA1A mRNA, geometric mean (treatment): 8.85
  NQO1 mRNA, geometric mean (treatment): 2.73
  PSMC4 mRNA, geometric mean (treatment): 2.21
  PSMD12 mRNA, geometric mean (treatment): 5.14
  SQSTM1 mRNA, geometric mean (treatment): 5.22
  DNAJA1 mRNA, geometric mean of ratios: 7.60
  HSPA1A mRNA, geometric mean of ratios: 8.85
  NQO1 mRNA, geometric mean of ratios: 2.73
  PSMC4 mRNA, geometric mean of ratios: 2.21
  PSMD12 mRNA, geometric mean of ratios: 5.14
  SQSTM1 mRNA, geometric mean of ratios: 5.22

## COc1ccc(/C=C2\CC(NC(=O)c3ccccn3)C/C(=C\c3ccc(OC)c(OC)c3)C2=O)cc1OC (centres unmarked) [RUN-94]
[1]
  Ub-G76V-GFP reporter assay, mean: 1.19
[2]
  DNAJA1 mRNA, geometric mean (treatment): 6.57
  NQO1 mRNA, geometric mean (treatment): 2.85
  PSMC4 mRNA, geometric mean (treatment): 1.37
  PSMD12 mRNA, geometric mean (treatment): 4.22
  SQSTM1 mRNA, geometric mean (treatment): 6.10
  DNAJA1 mRNA, geometric mean of ratios: 6.57
  HSPA1A mRNA, geometric mean of ratios: 8.20
  NQO1 mRNA, geometric mean of ratios: 2.85
  PSMC4 mRNA, geometric mean of ratios: 1.37
  PSMD12 mRNA, geometric mean of ratios: 4.22
  SQSTM1 mRNA, geometric mean of ratios: 6.10
